In assay [1] the target is T1, rat brain type IIA sodium channels (F1489Q α subunit + wild-type β1) (Rattus norvegicus, UniProt P04775, F1489Q/N209D). The assay is classed as biochemical, rat (expressed in Xenopus laevis oocytes).
Assay [2] addresses T1, rat brain type IIA sodium channels (F1489Q α subunit + wild-type β1). The assay is classed as biochemical, rat (expressed in Xenopus laevis oocytes). This is another data set of the same source.
Assay [3] deals with cardiac sodium channel with mutations in M1651 and M1652. The conditions noted are these: whole-cell recording, ref Tang et al. (1996), cited from earlier work.
A further assay concerns sodium channels. The note with it: ref Eaholtz et al., 1994, cited from earlier work.

“Also recorded” adds a separate entry of the source.

T1 sequence (P04775 whole entry N209D/F1489Q): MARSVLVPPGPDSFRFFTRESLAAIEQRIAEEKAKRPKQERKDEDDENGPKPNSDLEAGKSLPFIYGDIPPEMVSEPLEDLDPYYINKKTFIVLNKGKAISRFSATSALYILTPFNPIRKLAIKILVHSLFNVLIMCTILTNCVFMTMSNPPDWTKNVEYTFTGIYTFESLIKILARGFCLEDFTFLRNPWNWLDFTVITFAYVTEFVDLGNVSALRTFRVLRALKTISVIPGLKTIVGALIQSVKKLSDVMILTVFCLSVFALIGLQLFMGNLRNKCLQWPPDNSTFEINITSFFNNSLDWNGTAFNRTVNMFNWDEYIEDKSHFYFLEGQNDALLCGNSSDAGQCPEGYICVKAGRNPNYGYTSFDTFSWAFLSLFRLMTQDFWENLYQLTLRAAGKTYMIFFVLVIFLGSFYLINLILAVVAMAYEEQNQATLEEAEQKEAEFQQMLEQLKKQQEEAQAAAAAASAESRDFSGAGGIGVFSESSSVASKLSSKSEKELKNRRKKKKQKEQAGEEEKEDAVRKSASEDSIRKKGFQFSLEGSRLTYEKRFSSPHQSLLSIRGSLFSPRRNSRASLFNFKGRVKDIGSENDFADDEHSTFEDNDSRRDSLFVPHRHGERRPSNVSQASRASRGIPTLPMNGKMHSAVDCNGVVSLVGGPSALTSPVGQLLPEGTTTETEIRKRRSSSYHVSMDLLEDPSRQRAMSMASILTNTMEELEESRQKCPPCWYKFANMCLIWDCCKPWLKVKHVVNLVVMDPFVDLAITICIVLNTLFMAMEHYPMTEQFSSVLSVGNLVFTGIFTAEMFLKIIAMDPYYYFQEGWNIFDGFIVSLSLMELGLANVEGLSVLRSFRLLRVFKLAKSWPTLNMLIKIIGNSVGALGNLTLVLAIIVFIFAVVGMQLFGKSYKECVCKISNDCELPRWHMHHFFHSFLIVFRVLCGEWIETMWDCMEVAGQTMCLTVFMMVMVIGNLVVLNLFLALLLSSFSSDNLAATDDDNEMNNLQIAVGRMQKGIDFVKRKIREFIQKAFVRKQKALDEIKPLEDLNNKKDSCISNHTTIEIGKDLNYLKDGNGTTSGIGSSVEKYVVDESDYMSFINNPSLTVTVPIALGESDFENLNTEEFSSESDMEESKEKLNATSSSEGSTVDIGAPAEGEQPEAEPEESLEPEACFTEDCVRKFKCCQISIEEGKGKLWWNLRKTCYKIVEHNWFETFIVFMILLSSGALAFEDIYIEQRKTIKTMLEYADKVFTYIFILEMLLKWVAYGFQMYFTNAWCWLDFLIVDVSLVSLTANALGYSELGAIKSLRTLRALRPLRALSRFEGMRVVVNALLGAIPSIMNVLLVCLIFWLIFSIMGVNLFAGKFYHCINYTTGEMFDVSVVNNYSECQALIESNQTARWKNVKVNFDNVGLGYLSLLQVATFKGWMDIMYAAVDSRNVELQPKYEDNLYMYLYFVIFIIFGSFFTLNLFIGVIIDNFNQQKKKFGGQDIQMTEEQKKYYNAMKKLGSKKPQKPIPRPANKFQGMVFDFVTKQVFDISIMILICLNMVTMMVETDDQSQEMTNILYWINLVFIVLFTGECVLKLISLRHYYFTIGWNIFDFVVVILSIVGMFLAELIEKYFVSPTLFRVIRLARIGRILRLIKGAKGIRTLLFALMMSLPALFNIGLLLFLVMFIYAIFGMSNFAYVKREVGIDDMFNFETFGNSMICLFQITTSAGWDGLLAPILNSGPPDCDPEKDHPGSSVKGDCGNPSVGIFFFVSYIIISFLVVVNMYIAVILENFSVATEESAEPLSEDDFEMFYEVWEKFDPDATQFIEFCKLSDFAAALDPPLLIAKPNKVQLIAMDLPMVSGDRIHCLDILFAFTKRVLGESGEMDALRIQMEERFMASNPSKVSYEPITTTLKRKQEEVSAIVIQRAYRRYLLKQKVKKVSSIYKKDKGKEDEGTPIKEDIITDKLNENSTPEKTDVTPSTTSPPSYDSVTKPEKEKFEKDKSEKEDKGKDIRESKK
T1 sequence (Q00954 19-218 partner): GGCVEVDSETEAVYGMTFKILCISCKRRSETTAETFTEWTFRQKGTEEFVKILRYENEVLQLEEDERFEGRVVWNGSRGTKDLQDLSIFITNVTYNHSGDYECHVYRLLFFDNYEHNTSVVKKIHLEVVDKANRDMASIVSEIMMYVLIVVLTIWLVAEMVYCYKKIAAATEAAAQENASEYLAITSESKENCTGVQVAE

In the case of `CC[C@H](C)[C@H](NC(=O)[C@H](CCCCN)NC(C)=O)C(=O)N[C@@H](Cc1ccccc1)C(=O)N[C@@H](CCSC)C(=O)N[C@@H](CCCCN)C(N)=O` [KIFMK, acetyl-KIFMK-NH2], the “block of the steady state sodium current” value in assay [1] (100 μM KIFMK, voltage step from −100 to 0 mV) is over 70%. In addition, in assay [1] (read-out: unblocking rate k u (= k off)), the koff worked out at 342 ± 21 s⁻¹. Also, in assay [2] (100 μM KIFMK compared with no peptide control, test voltages −80 to 110 mV), the “shift of the I-V relationship” value is given as “negative shift of the I-V relationship”. Further, the “voltage dependence of unblocking (off) rates” value in assay [2] (100 μM KIFMK, −30 to 30 mV) is “voltage independent; also recorded: not affected by voltage; also recorded: no voltage dependence”. Moreover, the “mean unblocking rate k u over the voltage range” value in assay [2] (100 μM KIFMK, −30 to 30 mV, mean ± SEM, n = 4) was 336 ± 14 s⁻¹. For the same compound, the “voltage constant of blocking rate fit, exp^(V/43 mV)” value in assay [2] (100 μM KIFMK, e-fold factor of k b (Fig. 3 B) and k on (Scheme 1)) is reported as 43 mV. Moreover, the “extent of the electric field traversed by the lysine charges” value in assay [2] (if both charges enter the electric field to an equivalent extent) is recorded as 30%. In addition, the “K d from ratio of the on and off rates” value in assay [3] (outward sodium currents) is about 30 µM. Besides, in assay [3], the “dependence of the on rate on peptide concentration” value was “deviated significantly from linearity” and the “voltage dependence of block rate” value is reported as “no voltage dependence of block rate was detected”. Moreover, the types of block entry in the assay with sodium channels (cytoplasmic application) is “a rapid block, which occurs in milliseconds and resembles inactivation in kinetics and voltage dependence, and a cumulative, use-dependent block, which occurs during repetitive high voltage pulses”. Besides, in the assay with sodium channels, the slow block result is “slow block that occurs at voltages more depolarized than 0 mV” and the “state preference of block” value is “appears to preferentially block open channels”.
